According to ChEMBL document CHEMBL1143570, “Architecture of the human urotensin II receptor: comparison of the binding domains of peptide and non-peptide urotensin II agonists” (J Med Chem, 2005):

What follows are compounds tested against T1, Urotensin-2 receptor (Homo sapiens, UniProt Q9UKP6) (assay: Agonist activity for human Urotensin 2 receptor).
T1 sequence (Q9UKP6 whole entry): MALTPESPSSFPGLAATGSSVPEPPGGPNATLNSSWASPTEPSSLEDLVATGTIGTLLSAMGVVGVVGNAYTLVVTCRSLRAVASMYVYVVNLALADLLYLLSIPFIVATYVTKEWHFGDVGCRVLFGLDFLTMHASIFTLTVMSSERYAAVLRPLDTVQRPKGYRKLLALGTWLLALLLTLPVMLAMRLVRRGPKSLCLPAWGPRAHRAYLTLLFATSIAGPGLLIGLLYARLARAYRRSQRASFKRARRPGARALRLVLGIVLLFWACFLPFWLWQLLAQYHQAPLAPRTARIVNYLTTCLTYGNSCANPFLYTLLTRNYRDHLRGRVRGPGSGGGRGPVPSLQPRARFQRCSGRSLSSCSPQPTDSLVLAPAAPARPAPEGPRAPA
Assay type: functional

Row | EC50 [µM] | Structure (SMILES)
1 | 0.3 | CN(C)CCC1(c2ccc(Cl)cc2)Cc2ccccc2C(=O)O1 (stereo not drawn)
2 | 6.3 | CCN(CC)CCC1C(c2ccccc2)=Nc2ccccc2SC1c1ccc(Cl)cc1 (stereo not drawn)
3 | 5 | CCN(CC)CCC1=C(c2ccccc2)NC(=O)N(C)C1c1ccc(Cl)cc1 (stereo not drawn)
